Key:
HuM2e antibody 23K12 = format: binding, human
[1] = test system: anti-M2 human monoclonal antibody Z3G1; format: binding

Row | Substance | Signal (peptides that bind to 23K21 and 8I10) (HuM2e antibody 23K12) | Signal (peptides that show specific binding to Z3G1) [1] | Signal (peptides that bind to Z3G1) [1]
1 | 671 (SLLTEVETPIRNEPGCRCNDSSD; epitope peptide) [compound 671] | 735 | 2279 | –
2 | 461 (SLLTEVETPLRNEWGCRCNDSSD; epitope peptide) [compound 461] | 1268 | 2239 | –
3 | 605 (SLLTEVETPIRNMWGCRCNDSSD; epitope peptide) [compound 605] | 820 | 2455 | –
4 | 686 (SLLTEVETPIRNEWGCRLNDSSD; epitope peptide) [compound 686] | 728 | 2363 | –
5 | 708 (SLLTEVETPIRNEGGCRCNDSSD; epitope peptide) [compound 708] | 708 | 2486 | –
6 | 359 (MSLLTEVGMSCLTEV; epitope peptide) [compound 359] | 1535 | – | 2793
7 | 491 (SLLTEVETLIRNEWGCRCNDSSD; epitope peptide) [compound 491] | 1109 | 2225 | –
8 | 342 (SLLTEVETPIRNEWGCRCNSSSD; epitope peptide) [compound 342] | 1637 | – | 2440
9 | 638 (SLLTEVETPIRNEWGTRCNDSSD; epitope peptide) [compound 638] | 767 | 2404 | –
10 | 423 (SLLTEVETPIRNEWGCRCNDSHD; epitope peptide) [compound 423] | 782 | – | 2353
11 | 712 (SLLTEVETPIRNDWGCRCNDSSD; epitope peptide) [compound 712] | 706 | 2324 | –
12 | 345 (CSLLTEVGSCLTEV; epitope peptide) [compound 345] | 1616 | 2703 | –
13 | 264 (CSLLTEVETCVETPIRNEWGSRSNDC; epitope peptide) [compound 264] | 707 | 2374 | –
14 | 553 (SLLTEVTTPIRNEWGCRCNDSSD; epitope peptide) [compound 553] | 909 | 2102 | –
15 | 577 (SLLTEVETPIRNIWGCRCNDSSD; epitope peptide) [compound 577] | 862 | 2490 | –
16 | 568 (SLLTEVETPIRNEWGCRCQDSSD; epitope peptide) [compound 568] | 877 | – | 2438
17 | 435 (SLLTEVETP; epitope peptide) [compound 435] | 899 | – | 2380
18 | 428 (SLLTEVETPIRNEWGCRCNDSPD; epitope peptide) [compound 428] | 772 | – | 2344
19 | 384 (SLLTEVETPIRNEYGCRCNDSSD; epitope peptide) [compound 384] | 1377 | 2426 | –
20 | 622 (SLLTEVETPIRMEWGCRCNDSSD; epitope peptide) [compound 622] | 805 | 2385 | –
21 | 411 (SLLTEVETPIRNEWGCRCNDMSD; epitope peptide) [compound 411] | 744 | – | 2405
22 | 652 (SLLTEVEEPIRNEWGCRCNDSSD; epitope peptide) [compound 652] | 757 | 2362 | –

Row | Substance | Signal (peptides that bind to 23K21 and 8I10) (HuM2e antibody 23K12) | Signal (peptides that show specific binding to Z3G1) [1] | Signal (peptides that bind to Z3G1) [1]
23 | 709 (SLLTEVLTPIRNEWGCRCNDSSD; epitope peptide) [compound 709] | 707 | 1743 | –
24 | 536 (MCLCTCVGCSLLTEV; epitope peptide) [compound 536] | 954 | – | 2241
25 | 316 (MSLLTEVGCSLLTEV; epitope peptide) [compound 316] | 1809 | – | 2650
26 | 304 (MSLCTEVGMSLLCEV; epitope peptide) [compound 304] | 1935 | – | 2616
27 | 418 (SLLTEVETPIRNEWGCRCNDWSD; epitope peptide) [compound 418] | 929 | – | 2491
28 | 432 (SLLTEVETPIRNEWGCRCNDSVD; epitope peptide) [compound 432] | 728 | – | 2232
29 | 600 (SLLTEVETPIRNEWGLRCNDSSD; epitope peptide) [compound 600] | 831 | 2389 | –
30 | 484 (SLVTEVETPIRNEWGCRCNDSSD; epitope peptide) [compound 484] | 1175 | 2029 | –
31 | 575 (SLLTEVRTPIRNEWGCRCNDSSD; epitope peptide) [compound 575] | 866 | 1024 | –
32 | 524 (SLLTEVETPIDNEWGCRCNDSSD; epitope peptide) [compound 524] | 1001 | 2337 | –
33 | 547 (SLLTETETPIRNEWGCRCNDSSD; epitope peptide) [compound 547] | 919 | 1594 | –
34 | 543 (MSLLTCVGMSLLTEV; epitope peptide) [compound 543] | 925 | – | 2627
35 | 417 (SLLTEVETPIRNEWGCRCNDVSD; epitope peptide) [compound 417] | 772 | – | 2389
36 | 336 (SLLCEVGSLLTEV; epitope peptide) [compound 336] | 1674 | 2475 | –
37 | 289 (MSLCTEVGMSLCTEV; epitope peptide) [compound 289] | 2153 | – | 1093
38 | 706 (SLLTEVETPIRNEWGCRCADSSD; epitope peptide) [compound 706] | 712 | – | 2329
39 | 310 (MSCLCECGMSLLTEC; epitope peptide) [compound 310] | 1887 | – | –
40 | 348 (SLLTECGCSLLTEV; epitope peptide) [compound 348] | 1597 | – | –
41 | 480 (SLLTECGCLCTCV; epitope peptide) [compound 480] | 1193 | – | –
42 | 469 (MSLLTECGMSLLTEC; epitope peptide) [compound 469] | 1236 | – | –
43 | 468 (SCLCECGSLLTEC; epitope peptide) [compound 468] | 1244 | – | –
44 | 486 (SLFTEVETPIRNEWGCRCNDSSD; epitope peptide) [compound 486] | 1156 | – | –

Row | Substance | Signal (peptides that bind to 23K21 and 8I10) (HuM2e antibody 23K12) | Signal (peptides that show specific binding to Z3G1) [1] | Signal (peptides that bind to Z3G1) [1]
45 | 485 (CSLLTECGMCLCTCV; epitope peptide) [compound 485] | 1168 | – | –
46 | 494 (SLLTEQETPIRNEWGCRCNDSSD; epitope peptide) [compound 494] | 1102 | – | –
47 | 548 (CSLLTECGSLCTEV; epitope peptide) [compound 548] | 917 | – | –
48 | 282 (CSCLCEVGMSCLCEC; epitope peptide) [compound 282] | 2705 | – | –
49 | 315 (MCLCTCVGCSLLTEC; epitope peptide) [compound 315] | 1823 | – | –
50 | 369 (SLLTEAETPIRNEWGCRCNDSSD; epitope peptide) [compound 369] | 1481 | – | –
51 | 479 (SLLTEDETPIRNEWGCRCNDSSD; epitope peptide) [compound 479] | 1196 | – | –
52 | 515 (SLLTEWETPIRNEWGCRCNDSSD; epitope peptide) [compound 515] | 1025 | – | –
53 | 458 (CSLLTECGSCLTEV; epitope peptide) [compound 458] | 1278 | – | –
54 | 295 (MSLCTEVGMSCLTEV; epitope peptide) [compound 295] | 2026 | – | –
55 | 455 (CLCTCVGSLLTEC; epitope peptide) [compound 455] | 1303 | – | –
56 | 487 (SLLTNVETPIRNEWGCRCNDSSD; epitope peptide) [compound 487] | 1142 | – | –
57 | 319 (SLLTECGSLLTCV; epitope peptide) [compound 319] | 1800 | – | –
58 | 505 (SLLTEKETPIRNEWGCRCNDSSD; epitope peptide) [compound 505] | 1055 | – | –
59 | 471 (SLLTEEETPIRNEWGCRCNDSSD; epitope peptide) [compound 471] | 1220 | – | –
60 | 361 (SCLCECGCSLLTEC; epitope peptide) [compound 361] | 1520 | – | –
61 | 502 (CSCLCEVGSLLTEC; epitope peptide) [compound 502] | 1064 | – | –
62 | 507 (SLCTEVETPIRNEWGCRCNDSSD; epitope peptide) [compound 507] | 1050 | – | –
63 | 474 (SLLTECETPIRNEWGCRCNDSSD; epitope peptide) [compound 474] | 1214 | – | –
64 | 514 (SLLTEGETPIRNEWGCRCNDSSD; epitope peptide) [compound 514] | 1029 | – | –
65 | 362 (CSLLTECGMCLLTEV; epitope peptide) [compound 362] | 1517 | – | –

Reference: patent publication US8932597B2 (priority 2008, dated 2015)
